Test results: patent US20150218212A1, “FLUORINATED EPOXYKETONE-BASED TETRAPEPTIDE COMPOUNDS AND USES THEREOF AS PROTEASOME INHIBITORS” (FLUORINOV PHARMA INC., priority 2012, published 2015)

Assays:
Format in all cases: cell-based, human
OVCAR-4 = assay: NCI screening panel, OVCAR-4 (Ovarian Cancer)
Experimental: (§1) Representative compounds of Formula I were screened using the National Cancer Institute (NCI) screening panel, which consists of a panel of human tumor cell lines, representing leukemia, melanoma, and cancers of the lung, colon, ovary, breast, prostate and renal system.
(§2) After 24 h, two plates of each cell line are fixed in situ with TCA, to represent a measurement of the cell population for each cell line at the time of drug addition (Tz). Experimental drugs are solubilised in dimethyl sulfoxide at 400-fold the desired final maximum test concentration and stored frozen prior to use. At the time of drug addition, an aliquot of frozen concentrate is thawed and diluted to twice the desired final maximum test concentration with complete medium containing 50 μg/mL gentamicin. Additional four, 10-fold or ½ log serial dilutions are made to provide a total of five drug concentrations plus control. Aliquots of 100 μl of these different drug dilutions are added to the appropriate microtiter wells already containing 100 μl of medium, resulting in the required final drug concentrations.
(§3) Following drug addition, the plates are incubated for an additional 48 h at 37° C., 5% CO2, 95% air, and 100% relative humidity. For adherent cells, the assay is terminated by the addition of cold TCA (trichloroacetic acid). Cells are fixed in situ by the gentle addition of 50 μl of cold 50% (w/v) TCA (final concentration, 10% TCA) and incubated for 60 minutes at 4° C. The supernatant is discarded, and the plates are washed five times with tap water and air dried. Sulforhodamine B (SRB) solution (100 μl) at 0.4% (w/v) in 1% acetic acid is added to each well, and plates are incubated for 10 minutes at room temperature. After staining, unbound dye is removed by washing five times with 1% acetic acid and the plates are air dried. Bound stain is subsequently solubilised with 10 mM trizma base, and the absorbance is read on an automated plate reader at a wavelength of 515 nm. For suspension cells, the methodology is the same except that the assay is terminated by fixing settled cells at the bottom of the wells by gently adding 50 μl of 80% TCA (final concentration, 16% TCA). Using the seven absorbance measurements [time zero, (Tz), control growth, (C), and test growth in the presence of drug at the five concentration levels (Ti)], the percentage growth is calculated at each of the drug concentrations levels. Percentage growth inhibition is calculated as: [(Ti−Tz)/(C−Tz)]×100 for concentrations for which Ti>/=Tz and [(Ti−Tz)/Tz]×100 for concentrations for which Ti<Tz.
(§4) Three dose response parameters are calculated for each experimental agent. Growth inhibition of 50% (GI50) is calculated from [(Ti−Tz)/(C−Tz)]×100=50, which is the drug concentration resulting in a 50% reduction in the net protein increase (as measured by SRB staining) in control cells during the drug incubation. The drug concentration resulting in total growth inhibition (TGI) is calculated from Ti=Tz. The LC50 (concentration of drug resulting in a 50% reduction in the measured protein at the end of the drug treatment as compared to that at the beginning) indicating a net loss of cells following treatment is calculated from [(Ti−Tz)/Tz]×100=−50. Values are calculated for each of these three parameters if the level of activity is reached. However, if the effect is not reached or is exceeded, the value for that parameter is expressed as greater or less than the maximum or minimum concentration tested.

OVCAR-3 = assay: NCI screening panel, OVCAR-3 (Ovarian Cancer)
Experimental: as §1, §2, §3, §4

LOX IMVI = assay: NCI screening panel, LOX IMVI (Melanoma)
Experimental: as §1, §2, §3, §4

MOLT-4 = assay: NCI screening panel, MOLT-4 (Leukemia)
Experimental: as §1, §2, §3, §4

SNB-75 = assay: NCI screening panel, SNB-75 (CNS Cancer)
Experimental: as §1, §2, §3, §4

SF-268 = assay: NCI screening panel, SF-268 (CNS Cancer)
Experimental: as §1, §2, §3, §4

SN12C = assay: NCI screening panel, SN12C (Renal Cancer)
Experimental: as §1, §2, §3, §4

UACC-62 = assay: NCI screening panel, UACC-62 (Melanoma)
Experimental: as §1, §2, §3, §4

MDA-MB-231/ATCC = assay: NCI screening panel, MDA-MB-231/ATCC (Breast Cancer)
Experimental: as §1, §2, §3, §4

PC-3 = assay: NCI screening panel, PC-3 (Prostate Cancer)
Experimental: as §1, §2, §3, §4

Structure (SMILES)	Log10GI50 (OVCAR-4)	Log10LC50 (OVCAR-4)	Log10TGI50 (OVCAR-4)	Log10GI50 (OVCAR-3)	Log10LC50 (OVCAR-3)	Log10TGI50 (OVCAR-3)	Log10GI50 (LOX IMVI)	Log10LC50 (LOX IMVI)	Log10TGI50 (LOX IMVI)	Log10GI50 (MOLT-4)	Log10LC50 (MOLT-4)	Log10TGI50 (MOLT-4)	Log10GI50 (SNB-75)	Log10LC50 (SNB-75)	Log10TGI50 (SNB-75)	Log10GI50 (SF-268)	Log10LC50 (SF-268)	Log10TGI50 (SF-268)	Log10GI50 (SN12C)	Log10LC50 (SN12C)	also measured
CC(C)C[C@H](NC(=O)[C@H](COC(F)F)NC(=O)[C@H](COC(F)F)NC(=O)[C@H](CCc1ccccc1)NC(=O)CN1CCOCC1)C(=O)[C@@]1(C)CO1 [Example 7, (2S)-N-[(1S)-1-(difluoromethoxymethyl)-2-[[(1S)-1-(difluoromethoxymethyl)-2-[[(1S)-3-methyl-1-[(2R)-2-methyloxirane-2-carbo-nyl]butyl]amino]-2-oxo-ethyl]amino]-2-oxo-ethyl]-2-[(2-morpholinoacetyl)amino]-4-phenyl-butanamide]	−7.69	>−4.00	>−4.00	−7.64	−6.40	−7.24	−7.99	−7.13	−7.56	−7.71	>−4.00	−6.85	−7.65	−4.01	−7.16	−7.73	>−4.00	−7.21	−7.46	−5.85	Log10TGI50 (SN12C): −6.77; Log10GI50 (UACC-62): −7.49; Log10LC50 (UACC-62): −4.37; Log10TGI50 (UACC-62): −6.73; Log10GI50 (MDA-MB-231/ATCC): −7.64; Log10LC50 (MDA-MB-231/ATCC): −4.92; Log10TGI50 (MDA-MB-231/ATCC): −7.14; Log10GI50 (PC-3): −7.49; Log10LC50 (PC-3): −5.41; Log10TGI50 (PC-3): −6.86
CC(C)C[C@H](NC(=O)[C@H](Cc1ccccc1)NC(=O)[C@H](COC(F)F)NC(=O)[C@H](COC(F)F)NC(=O)CN1CCOCC1)C(=O)[C@@]1(C)CO1 [Example 11, (2S)-2-[[(2S)-3-(difluoromethoxy)-2-[[(2S)-3-(difluoromethoxy)-2-[(2-morpholinoacetyl)-amino]propanoyl]amino]propanoyl]amino]-N-[(1S)-3-methyl-1-[(2R)-2-methyloxirane-2-carbonyl]butyl]-3-phenyl-propanamide]	−7.68	>−4.00	−5.69	−7.66	−6.82	−7.31	−7.79	−7.09	−7.44	<−8.00	>−4.00	−6.83	−7.62	>−4.00	−7.15	−7.66	−4.07	−7.22	−7.20	−5.39	Log10TGI50 (SN12C): −6.50; Log10GI50 (UACC-62): −7.52; Log10LC50 (UACC-62): >−4.00; Log10TGI50 (UACC-62): −6.73; Log10GI50 (MDA-MB-231/ATCC): −7.56; Log10LC50 (MDA-MB-231/ATCC): −4.39; Log10TGI50 (MDA-MB-231/ATCC): −6.94; Log10GI50 (PC-3): −7.32; Log10LC50 (PC-3): >−4.00; Log10TGI50 (PC-3): −6.51
CC(C)C[C@H](NC(=O)[C@H](COC(F)F)NC(=O)[C@H](COC(F)F)NC(=O)[C@H](COC(F)F)NC(=O)CN1CCOCC1)C(=O)[C@@]1(C)CO1 [Example 17, (2S)-3-(difluoromethoxy)-N-[(1S)-1-(difluoromethoxymethyl)-2-[[(1S)-1-(difluoro-methoxymethyl)-2-[[(1S)-3-methyl-1-[(2R)-2-methyloxirane-2-carbonyl]butyl]amino]-2-oxo-ethyl]amino]-2-oxo-ethyl]-2-[(2-mor-pholinoacetyl)amino]-propanamide]	−7.23	>−4.00	−4.55	−7.30	−6.05	−6.65	−7.36	−6.36	−6.81	−7.42	>−4.00	−6.41	−7.15	>−4.00	−6.39	−7.15	−4.87	−6.47	−6.71	−5.06	Log10TGI50 (SN12C): −6.08; Log10GI50 (UACC-62): −7.14; Log10LC50 (UACC-62): −5.39; Log10TGI50 (UACC-62): −6.42; Log10GI50 (MDA-MB-231/ATCC): −6.87; Log10LC50 (MDA-MB-231/ATCC): −4.25; Log10TGI50 (MDA-MB-231/ATCC): −6.10; Log10GI50 (PC-3): −6.76; Log10LC50 (PC-3): −5.02; Log10TGI50 (PC-3): −6.12
